Patent US7322965B2, “Infection-resistant medical devices” (priority 2002, dated 2008)
Values after ≈ are worked out from the molar mass of the structure shown. “Also recorded” adds a separate entry of the source. Like-named read-outs stand apart in the source and are kept apart here. Marks after values point to notes of the source that are not given here.

Legend:
[1] = system: S. aureus and S. epidermidis strains; experiment: Microtiter-plate adherence assay, summary over all strains evaluated; format: cell-based, staphylococci; settings: for effect on bacterial adhesion at subinhibitory concentrations: concentrations less than the MIC, as low as one-fourth the MIC
Description: (§1) Briefly, the inoculum was established by the direct colony suspension method using the Prompt™ Inoculation System (Becton Dickinson, Sparks, Md.). The bacteria suspension, which was equal to the turbidity of a 0.5 McFarland standard, was diluted in TSB to a concentration of 1×10^6 colony forming units per ml (CFU/mL). One hundred microliters of the cell suspension was added to flat-bottom polystyrene wells (Corning Costar, Corning, N.Y.) containing 100 μl of TSB, with and without drug. The final inoculum concentration per well was approximately 5×10^5 CFU/mL. The plates were incubated at 37° C. under static conditions in air. At 18 hours (h) post-infection, the optical density of bacterial growth was measured at a wavelength of 595 nm in a microtiter plate reader (Vmax; Molecular Devices, Sunnyvale, Calif.). […] Adherent “sessile” cells then were fixed with 3.7% (v/v) formaldehyde/2% (w/v) sodium acetate and stained with 0.1% (w/v) crystal violet. Excess stain was rinsed off with deionized water and the plates were air-dried for 4 h. The optical density of bacterial adherence was determined at a wavelength of 550 nm. Preliminary studies were performed to determine the optimal wavelengths for measuring growth turbidity and stained adherent cells (data not shown). To compensate for background absorbance, optical density readings from wells treated with sterile medium, fixative and stain as described above were averaged and then subtracted from all test and control wells. Relative inhibition of adherence or growth was expressed by the following equation: (OD of control well−OD of treated well/OD of control well)×100, where OD is the mean optical density of six replicate wells from two separate experiments (three replicates per experiment). Control was defined as infected, drug-free cultures.
(§2) The primary efficacy variable in this study was the measurement of adherent bacterial cells to polystyrene after 18 h of growth. To determine whether statistically significant differences existed between treatment groups (MIC, ½ MIC, and ¼ MIC) compared with the infected-nontreated controls, the Kruskal-Wallis one-way analysis of variance (ANOVA) was applied for each clinical strain. Statistical significance was defined as p-values ≦0.05. An asterisk (*) was placed by all test values less than or equal to the specified significance level.

[2] = system: S. hominis SP2; experiment: Microtiter-plate adherence assay on polystyrene, nonadherent reference strain; format: cell-based; settings: data not shown
Description: Briefly, the inoculum was established by the direct colony suspension method using the Prompt™ Inoculation System (Becton Dickinson, Sparks, Md.). The bacteria suspension, which was equal to the turbidity of a 0.5 McFarland standard, was diluted in TSB to a concentration of 1×10^6 colony forming units per ml (CFU/mL). One hundred microliters of the cell suspension was added to flat-bottom polystyrene wells (Corning Costar, Corning, N.Y.) containing 100 μl of TSB, with and without drug. The final inoculum concentration per well was approximately 5×10^5 CFU/mL. The plates were incubated at 37° C. under static conditions in air. At 18 hours (h) post-infection, the optical density of bacterial growth was measured at a wavelength of 595 nm in a microtiter plate reader (Vmax; Molecular Devices, Sunnyvale, Calif.). […] The optical density of bacterial adherence was determined at a wavelength of 550 nm. […] To compensate for background absorbance, optical density readings from wells treated with sterile medium, fixative and stain as described above were averaged and then subtracted from all test and control wells. […]
Reliability of the microtiter-plate adherence assay was assessed with the reference strains S. hominis SP2 (nonadherent) and S. epidermidis RP62A (strongly adherent). The median optical density readings for SP2 and RP62A were 0.059±0.004 and 2.789±0.266, respectively. […]

[3] = system: S. aureus UC-20206; experiment: Microtiter-plate adherence assay on polystyrene; format: cell-based; settings: for Adherence Mean OD550: S. aureus UC-20206, 18 h
Description: as §1, §2

[4] = system: S. epidermidis UC-20208; experiment: Microtiter-plate adherence assay on polystyrene; format: cell-based; settings: for Adherence Mean OD550: S. epidermidis UC-20208, 18 h; for inhibition at 0.5 µg/mL / inhibition at 1 µg/mL / inhibition at 2 µg/mL: Staphylococcus epidermidis, UC20208, 18 h, read-out: Adherence % Inhibition
Description: as §1, §2

[5] = system: S. aureus UC-20205; experiment: Microtiter-plate adherence assay on polystyrene; format: cell-based; settings: for Adherence Mean OD550: S. aureus UC-20205, 18 h
Description: as §1, §2

[6] = system: S. hominis SP-2; experiment: Determination of minimum inhibitory concentration (microdilution); format: cell-based; settings: Staphylococcus hominis, read-out: MIC (minimum inhibitory concentration)
[7] = system: S. epidermidis UC-20208; experiment: as above; format: cell-based; settings: Staphylococcus epidermidis, read-out: MIC (minimum inhibitory concentration)
[8] = system: S. epidermidis UC-20207; experiment: Microtiter-plate adherence assay on polystyrene; format: cell-based; settings: for Adherence Mean OD550: S. epidermidis UC-20207, 18 h; for inhibition at 0.5 µg/mL / inhibition at 1 µg/mL / inhibition at 2 µg/mL: Staphylococcus epidermidis, UC20207, 18 h, read-out: Adherence % Inhibition
Description: (§3) Briefly, the inoculum was established by the direct colony suspension method using the Prompt™ Inoculation System (Becton Dickinson, Sparks, Md.). The bacteria suspension, which was equal to the turbidity of a 0.5 McFarland standard, was diluted in TSB to a concentration of 1×10^6 colony forming units per ml (CFU/mL). One hundred microliters of the cell suspension was added to flat-bottom polystyrene wells (Corning Costar, Corning, N.Y.) containing 100 μl of TSB, with and without drug. The final inoculum concentration per well was approximately 5×10^5 CFU/mL. The plates were incubated at 37° C. under static conditions in air. At 18 hours (h) post-infection, the optical density of bacterial growth was measured at a wavelength of 595 nm in a microtiter plate reader (Vmax; Molecular Devices, Sunnyvale, Calif.). […] Adherent “sessile” cells then were fixed with 3.7% (v/v) formaldehyde/2% (w/v) sodium acetate and stained with 0.1% (w/v) crystal violet. Excess stain was rinsed off with deionized water and the plates were air-dried for 4 h. The optical density of bacterial adherence was determined at a wavelength of 550 nm. […] To compensate for background absorbance, optical density readings from wells treated with sterile medium, fixative and stain as described above were averaged and then subtracted from all test and control wells. Relative inhibition of adherence or growth was expressed by the following equation: (OD of control well−OD of treated well/OD of control well)×100, where OD is the mean optical density of six replicate wells from two separate experiments (three replicates per experiment). Control was defined as infected, drug-free cultures.
as §2

[9] = system: S. epidermidis RP62A; experiment: Microtiter-plate adherence assay on polystyrene; format: cell-based; settings: 18 h; for Adherence Mean OD550: S. epidermidis RP62A; for inhibition at 0.5 µg/mL / inhibition at 1 µg/mL / inhibition at 2 µg/mL: Staphylococcus epidermidis, RP62A, read-out: Adherence % Inhibition
Description: as §3, §2

[10] = Staphylococcus aureus, UC20206, 18 h, read-out: Adherence % Inhibition
[11] = Staphylococcus aureus, UC20205, 18 h, read-out: Adherence % Inhibition

Row | SMILES | effect on bacterial adhesion at subinhibitory concentrations ([1]; five strains) | promotion of adherence of the nonadherent strain [2] | Adherence Mean OD550 ([3]; drug 1.0 μg/ml) | inhibition at 1 µg/mL [3, 10] [%] | Adherence Mean OD550 ([4]; drug 0.5 μg/ml) | Adherence Mean OD550 ([4]; drug 1.0 μg/ml) | Adherence Mean OD550 ([4]; drug 2.0 μg/ml (MIC)) | inhibition at 0.5 µg/mL [4] [%] | inhibition at 1 µg/mL [4] [%] | inhibition at 2 µg/mL [4] [%] | Adherence Mean OD550 ([5]; drug 0.5 μg/ml) | Adherence Mean OD550 ([5]; drug 1.0 μg/ml) | inhibition at 0.5 µg/mL [5, 11] [%] | inhibition at 1 µg/mL [5, 11] [%] | Adherence Mean OD550 ([8]; drug 0.5 μg/ml) | Adherence Mean OD550 ([8]; drug 2.0 μg/ml (MIC)) | inhibition at 0.5 µg/mL [8] [%] | inhibition at 1 µg/mL [8] [%] | inhibition at 2 µg/mL [8] [%] | Adherence Mean OD550 ([9]; drug 1.0 μg/ml) | further results
1 | CN[C@H](CC(C)C)C(=O)N[C@H]1C(=O)N[C@@H](CC(N)=O)C(=O)N[C@H]2C(=O)N[C@H]3C(=O)N[C@H](C(=O)N[C@H](C(=O)O)c4cc(O)cc(O)c4-c4cc3ccc4O)[C@H](O)c3ccc(c(Cl)c3)Oc3cc2cc(c3O[C@@H]2O[C@H](CO)[C@@H](O)[C@H](O)[C@H]2O[C@H]2C[C@](C)(N)[C@H](O)[C@H](C)O2)Oc2ccc(cc2Cl)[C@H]1O [Vancomycin] | minimal or no activity against bacterial adhesion; also recorded: did not inhibit staphylococcal adherence in four of the five strains assessed | Neither linezolid nor vancomycin promoted adherence | 0.000 ± 0.003* | 9.99 | 2.165 ± 0.150 | 2.716 ± 0.400 | 0.000 ± 0.001* | 0 | 0 | 100 | 0.012 ± 0.013* | 0.000 ± 0.001* | 98 | 100 | 2.177 ± 0.424 | 0.001 ± 0.002* | 0 | 0 | 100 | 1.728 ± 0.952 | Adherence Mean OD550 ([3]; drug 0.25 μg/ml): 0.192 ± 0.020; Adherence Mean OD550 ([3]; drug 0.5 μg/ml): 0.267 ± 0.044; inhibition at 0.25 µg/mL [3, 10]: 12.5%; inhibition at 0.5 µg/mL [3, 10]: 0%; Adherence Mean OD550 ([5]; drug 0.25 μg/ml): 0.730 ± 0.202; inhibition at 0.25 µg/mL [5, 11]: 0%; MIC ([6]; SP2, 18 h): 1 µg/mL (≈ 0.69 µM); MIC ([7]; UC20208, 18 h): 2 µg/mL (≈ 1.38 µM); Adherence Mean OD550 ([9]; drug 2.0 μg/ml (MIC)): 0.000 ± 0.002*; inhibition at 0.5 µg/mL [9]: 0%; inhibition at 1 µg/mL [9]: 36.6%; inhibition at 2 µg/mL [9]: 100%
2 | CC(=O)NC[C@H]1CN(c2ccc(N3CCOCC3)c(F)c2)C(=O)O1 [Linezolid, (S)-N-[[3-[3-fluoro-4-(4-morpholinyl)phenyl]-2-oxo-5-oxazolidinyl]methyl]acetamide] | surprisingly effective at preventing bacterial adhesion; also recorded: significant inhibitory effects on cell adhesion in all strains evaluated | Neither linezolid nor vancomycin promoted adherence | 0.001 ± 0.002* | 99.4 | 1.342 ± 0.791 | 0.001 ± 0.002* | 0.000 ± 0.001* | 26.7 | 99.9 | 100 | 0.013 ± 0.007* | 0.005 ± 0.007* | 97.6 | 99 | 0.513 ± 0.227* | 0.010 ± 0.005* | 76.9 | 99.7 | 99.5 | 0.002 ± 0.002* | preventing adherence to polystyrene ([1]; one-fourth the MIC, five strains): effective in preventing adherence at one-fourth the MIC in all but one strain; percent inhibition of adherence relative to control ([1]; one-half the MIC, all strains evaluated): greater than or equal to 99.0%; Adherence Mean OD550 ([3]; drug 2.0 μg/ml): 0.002 ± 0.002*; Adherence Mean OD550 ([3]; drug 4.0 μg/ml): 0.003 ± 0.003*; inhibition at 2 µg/mL [3, 10]: 99.3%; inhibition at 4 µg/mL [3, 10]: 98.5%; Adherence Mean OD550 ([5]; drug 2.0 μg/ml): 0.001 ± 0.001*; inhibition at 2 µg/mL [5, 11]: 99.7%; MIC ([6]; SP2, S. hominis SP-2, 18 h): 2 µg/mL (≈ 5.93 µM); MIC ([7]; UC20208, S. epidermidis UC-20208, 18 h): 2 µg/mL (≈ 5.93 µM); Adherence Mean OD550 ([8]; drug 1.0 μg/ml): 0.007 ± 0.002*; Adherence Mean OD550 ([9]; drug 0.5 μg/ml): 0.125 ± 0.133*; Adherence Mean OD550 ([9]; drug 2.0 μg/ml (MIC)): 0.001 ± 0.001*; inhibition at 0.5 µg/mL [9]: 95.5%; inhibition at 1 µg/mL [9]: 99.9%; inhibition at 2 µg/mL [9]: 100%
